Reference: US20030008845A1, “Conjugated nonadecadienoic acid compositions” (priority 2001, published 2003)

What was measured:
3T3-L1 adipocytes [1] = assay: cellular triacylglycerol in 3T3-L1 adipocytes; type: cell-based
Source text: (§1) CNA was synthesized from NA (purchased from Nu-Chek Corp., Elysian, Minn.), using the method described in Park, Y. et al., Lipids 34 (1999) 235-241 for producing CLA from linoleic acid; the CNA product synthesized contained 97.3% CNA (c10, t12, 33.4%; t11, c13, 32.9%; t10, t12/t11, t13, 23.4%; other isomers, 7.6%) with the remainder as unreacted NA. CLA was synthesized as described by Park, et al., supra; the CLA product synthesized contained 97.8% CLA (c9, t11/t9, c11, 45.7%; t10, c12, 47.6%; t9, t11/t10, t12, 1.7%; others, 2.8%) with the remainder as unreacted linoleic acid.
(§2) Cultured cells were treated with fatty acid-albumin complexes for 2 days, beginning at day 6 post-differentiation. Data were analyzed as log value with a two-way ANOVA using fatty acid (as treatments) and experiment. If the interaction between treatment and experiment was significant, this interaction was used as the error term. Additional experimental details were as described in Park, et al., supra.
(§3) Treatment values indicate the concentration of test materials (μM); all treatment groups included albumin at 100 μM. Reported values are mean±S.E. (n=8, collected from two independent experiments). […] CNA inhibited LPL activity in cultured 3T3-L1 adipocytes (FIG. 1A). In addition, CNA enhanced glycerol release (FIG. 1B) and reduced intracellular triacylglycerol (FIG. 1C) and glycerol (FIG. 1D) in the same cells. […]

3T3-L1 adipocytes [2] = assay: cellular glycerol in 3T3-L1 adipocytes; type: cell-based
Source text: as §1, §2, §3

3T3-L1 adipocytes [3] = assay: glycerol release in 3T3-L1 adipocytes; type: cell-based
Source text: as §1, §2, §3

lipoprotein lipase (LPL) = target: T1, lipoprotein lipase (LPL) (Mus musculus, UniProt P11152); assay: heparin-releasable LPL activity in 3T3-L1 adipocytes; type: cell-based
T1 construct: endogenous in cells; host or cells: 3T3-L1 adipocytes
T1 sequence (P11152 28-474): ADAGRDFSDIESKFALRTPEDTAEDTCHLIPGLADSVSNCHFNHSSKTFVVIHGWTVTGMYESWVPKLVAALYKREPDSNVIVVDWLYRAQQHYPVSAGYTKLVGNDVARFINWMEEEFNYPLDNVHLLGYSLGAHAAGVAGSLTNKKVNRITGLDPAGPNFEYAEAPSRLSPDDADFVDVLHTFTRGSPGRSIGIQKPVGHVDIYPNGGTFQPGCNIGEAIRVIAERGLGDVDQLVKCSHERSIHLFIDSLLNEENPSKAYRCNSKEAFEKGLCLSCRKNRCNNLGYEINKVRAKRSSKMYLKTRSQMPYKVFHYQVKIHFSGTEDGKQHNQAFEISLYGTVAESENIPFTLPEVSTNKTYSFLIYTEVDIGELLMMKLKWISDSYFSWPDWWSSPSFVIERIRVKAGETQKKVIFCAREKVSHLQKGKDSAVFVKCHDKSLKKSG
Source text: as §1, §2, §3

[4] = Effects of CNA and CLA on body composition (diet feeding); type: in vivo, mice; settings: 0.3% in diet, 2 weeks; for Body weight gain per animal: female ICR mice
Source text: Female ICR mice (4-week-old) and semi-purified diets (TD94060, 99% basal mix) were purchased from Harlan Sprague Dawley (Madison, Wis.) and Harlan Teklad (Madison, Wis.), respectively. CLA was obtained from Natural Lipids Ltd AS, Hovdebygda, Norway; its composition was 88.7% CLA (c9, t11/t9, c11, 41.9%; t10, c12, 43.5%; t9, t11/10, t12, 1.5%; others, 1.8%) with the remainder as oleic acid, 5.6%; palmitic acid, 1.4%; and linoleic acid, 0.5%. CNA was kindly provided by the US Food and Drug Administration; it was 98.6% CNA (c10, t12, 42.3%; t11, c13, 48.0%; t10, t12/t11, t13, 5.1%; others, 3.2%) with the remainder as unreacted NA. CLA or CNA was added to diets at the expense of corn oil to maintain 5.5% fat. Diet was stored at −20° C. until use. Mice were housed individually in a windowless room with a 12-h light-dark cycle in strict accordance to guidelines established by the Research Animal Resources Center of University of Wisconsin-Madison. Diet and water, available ad libitum, were freshly provided three times per week.
After a 5 day adaptation period, mice were randomly separated into 3 groups and fed control diet, diet supplemented with 0.3% CLA, or diet supplemented with 0.3% CNA for 2 weeks. 0.3% of diet CLA is a sub-optimal dose for CLA's effects on body composition.
Results are mean±S.E. (n=6).

[5] = system: ADP-induced whole blood platelet aggregation; assay: ADP-induced whole blood platelet aggregation; type: cell-based, guinea pigs; settings: guinea pig heparinized whole blood, ADP 10 μM, 2 min preincubation (FIG. 3)
Experimental: (§4) Female guinea pigs and diets were purchased from Harlan Teklad (Madison, Wis). Whole Blood Aggregometer, collagen and ADP were purchased from Chrono-log Corp. (Havertown, Pa.). All ELISA kits were purchased from Cayman Chemical (Ann Arbor, Mich.).
(§5) Whole blood platelet aggregation: Guinea Pigs were anesthetized with a combination of ketamine (35 mg/kg) and xylazine (10 mg/kg) by subcutaneous administration. Heparinized blood (20 unit/ml) was obtained by cardiac puncture. Within 5-10 minutes, the blood (1.0 ml) was preheated at 37° C. and then incubated with free fatty acid or DMSO (control) for 2 minutes. Collagen (4 μg/ml) or ADP (10 μM) was next added to the blood to start the platelet aggregation process. Platelet aggregation was measured using an Aggregometer.

thromboxane B2 = thromboxane B2 level in collagen-stimulated blood by ELISA; type: cell-based, guinea pigs; settings: collagen-stimulated guinea pig blood, plasma ELISA (FIG. 4)
Experimental: as §4
(§6) Determination of thromboxane B2 level by ELISA: After the whole blood platelet aggregation, the collagen-stimulated blood was centrifuged for plasma and stored at −80° C. The plasma thromboxane level was determined by ELISA according to the manufacturer's instructions. Inhibitory effects on ovine COX-1 and COX-2: COX-1 or COX-2, heme and reaction buffer were pre-incubated under 37° C. CNA or DMSO (control) was added to the system and co-incubated for 5 minutes. Arachidonic acid was added and the reaction was maintained at 37° C. for 2 minutes. The catalysis reaction was terminated by adding HCL. Total prostanoids were measured by ELISA according to manufacturer's instructions.

[6] = system: lipopolysaccharide-stimulated macrophages; assay: PGE2 released from LPS-stimulated macrophages; type: cell-based; settings: macrophages incubated 24 hours, then 100 ng/ml LPS 8 hours; about 3000 pg/ml without CNA (FIG. 7)
Experimental: As a further indication of the ability of CNA to inhibit COX enzymes, FIG. 7 depicts the inhibition of PGE2 released from stimulated macrophages in the presence of varying amounts of CNA. Confluent macrophages were incubated with CNA or linoleic acid (LA; control) at the concentrations shown for 24 hours in 0.5% fetal bovine serum then were stimulated with 100 ng/ml lipopolysaccharide (LPS) for 8 hours. The level of PGE2 in the medium was determined by ELISA assay.

ovine cyclooxygenase-2 = target: T2, ovine cyclooxygenase-2 (Ovis aries, UniProt P79208); assay: ovine COX-2 inhibition (total prostanoids by ELISA); type: biochemical; settings: pure ovine COX-2, 5 min co-incubation, 37° C. (FIG. 6)
T2 sequence (P79208 17-603): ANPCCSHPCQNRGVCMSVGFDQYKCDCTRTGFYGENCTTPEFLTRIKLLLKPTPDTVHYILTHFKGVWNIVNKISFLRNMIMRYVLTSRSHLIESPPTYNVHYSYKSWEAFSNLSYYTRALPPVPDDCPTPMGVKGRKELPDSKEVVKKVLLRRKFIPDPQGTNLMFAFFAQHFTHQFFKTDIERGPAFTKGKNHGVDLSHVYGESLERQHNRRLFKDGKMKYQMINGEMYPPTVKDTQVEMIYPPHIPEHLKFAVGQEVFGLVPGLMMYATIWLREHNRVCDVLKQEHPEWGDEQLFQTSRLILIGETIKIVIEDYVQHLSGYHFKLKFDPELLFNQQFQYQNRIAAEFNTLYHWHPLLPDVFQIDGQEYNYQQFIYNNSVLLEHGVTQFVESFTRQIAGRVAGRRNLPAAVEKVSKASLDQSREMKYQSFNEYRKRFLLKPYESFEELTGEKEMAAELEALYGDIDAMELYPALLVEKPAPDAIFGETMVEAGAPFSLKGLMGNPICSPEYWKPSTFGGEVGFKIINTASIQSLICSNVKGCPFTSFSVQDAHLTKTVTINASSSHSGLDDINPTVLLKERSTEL
Experimental: as §6

ovine cyclooxygenase-1 = target: T3, ovine cyclooxygenase-1 (Ovis aries, UniProt P05979); assay: ovine COX-1 inhibition (total prostanoids by ELISA); type: biochemical; settings: pure ovine COX-1, 5 min co-incubation, 37° C. (FIG. 5)
T3 sequence (P05979 25-600): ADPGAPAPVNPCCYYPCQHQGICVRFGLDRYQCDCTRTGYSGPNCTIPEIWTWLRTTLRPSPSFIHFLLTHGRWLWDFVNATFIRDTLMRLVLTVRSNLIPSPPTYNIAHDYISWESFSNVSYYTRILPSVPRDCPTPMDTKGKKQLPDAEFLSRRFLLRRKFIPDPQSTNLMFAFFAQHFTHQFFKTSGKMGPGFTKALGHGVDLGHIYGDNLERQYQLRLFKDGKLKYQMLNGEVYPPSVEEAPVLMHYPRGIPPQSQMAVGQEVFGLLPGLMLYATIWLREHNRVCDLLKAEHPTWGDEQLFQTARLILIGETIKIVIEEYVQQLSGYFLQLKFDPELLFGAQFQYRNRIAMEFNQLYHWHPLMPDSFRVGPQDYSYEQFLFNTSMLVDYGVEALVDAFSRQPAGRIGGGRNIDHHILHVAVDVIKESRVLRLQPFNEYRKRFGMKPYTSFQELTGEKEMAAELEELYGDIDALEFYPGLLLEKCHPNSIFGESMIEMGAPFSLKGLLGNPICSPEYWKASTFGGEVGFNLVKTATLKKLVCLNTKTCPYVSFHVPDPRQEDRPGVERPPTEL
Experimental: as §6

[7] = system: collagen-induced whole blood platelet aggregation; assay: collagen-induced whole blood platelet aggregation; type: cell-based, guinea pigs; settings: guinea pig heparinized whole blood, collagen 4 μg/ml, 2 min preincubation (FIG. 2)
Experimental: as §4, §5

| Molecule | intracellular triacylglycerol (3T3-L1 adipocytes [1]; at 50 or 100 μM) | intracellular glycerol (3T3-L1 adipocytes [2]; at 50 or 100 μM) | glycerol release (3T3-L1 adipocytes [3]; at 50 or 100 μM) | LPL activity (lipoprotein lipase (LPL); 3T3-L1 adipocytes, at 50 or 100 μM) | Body weight gain per animal [4] | ADP-stimulated platelet aggregation [5] | thromboxane B2 level (thromboxane B2) | intracellular triacylglycerol (3T3-L1 adipocytes [1]; 2 days, albumin 100 μM (FIG. 1C)) | amount of whole body water, protein and ash ([4]; mice, in words) | body fat mass gain ([4]; mice, in words) | level of PGE2 in the medium [6] | intracellular glycerol (3T3-L1 adipocytes [2]; 2 days, albumin 100 μM (FIG. 1D)) | COX-2 activity (ovine cyclooxygenase-2) | COX-1 activity (ovine cyclooxygenase-1) | collagen-stimulated platelet aggregation [7] | glycerol release (3T3-L1 adipocytes [3]; 2 days, albumin 100 μM (FIG. 1B)) | LPL activity (lipoprotein lipase (LPL); cultured 3T3-L1 adipocytes, fatty acid-albumin complexes 2 days, albumin 100 μM (FIG. 1A)) |
| --- | --- | --- | --- | --- | --- | --- | --- | --- | --- | --- | --- | --- | --- | --- | --- | --- | --- |
| CCCCC/C=C\C/C=C\CCCCCCCCC(=O)O [NA, c10, c13 nonadecadienoic acid, reference compound] | ineffective | ineffective | ineffective | ineffective | – | – | – | – | – | – | – | – | – | – | – | – | – |
| Conjugated linoleic acid [CLA, reference compound] | – | – | – | – | 1.3 g | – | – | – | – | – | – | – | – | – | – | – | – |
| conjugated nonadecadienoic acid [CNA] | – | – | – | – | 0.2 g | inhibited | reduced | reduced | enhanced | reduced | less than 1000 pg/ml | reduced | inhibited | inhibited | inhibited | enhanced | inhibited |
